Drawing on ChEMBL document CHEMBL2413072, “Synthesis and in vitro anticancer studies of novel C-2 arylidene congeners of lantadenes” (2013), this text covers inhibition of growth and growth for two compounds.

Assay type in all cases: functional
In experiment [1] the test system is RXF 393. Kind of experiment: Growth inhibition of human RXF393 cells assessed as growth inhibition at 10 uM by sulforhodamine B assay. The following applies: read-out: GI.
Experiment [2] has as its system HL-60(TB). Kind of experiment: Growth inhibition of human HL-60(TB) cells assessed as cell growth at 10 uM by sulforhodamine B assay. The following applies: read-out: Activity.
In experiment [3] the test system is CCRF-CEM. In words: Growth inhibition of human CCRF-CEM cells assessed as cell growth at 10 uM by sulforhodamine B assay. The following applies: read-out: Activity.
Experiment [4] has as its system OVCAR-3. Kind of experiment: Growth inhibition of human OVCAR3 cells assessed as growth inhibition at 10 uM by sulforhodamine B assay. The following applies: read-out: GI. In general terms: In SRB staining, fixed cells bind dye roughly in proportion to their protein.
The test system of experiment [5] is SK-MEL-2. Kind of experiment: Growth inhibition of human SK-MEL-2 cells assessed as growth inhibition at 10 uM by sulforhodamine B assay. The following applies: read-out: GI.
Experiment [6] has as its system SK-MEL-28. In words: Growth inhibition of human SK-MEL-28 cells assessed as growth inhibition at 10 uM by sulforhodamine B assay. The following applies: read-out: GI.
Experiment [7] concerns SNB-19. In words: Growth inhibition of human SNB19 cells assessed as growth inhibition at 10 uM by sulforhodamine B assay. The following applies: read-out: GI.
The test system of experiment [8] is KM12. In words: Growth inhibition of human KM12 cells assessed as growth inhibition at 10 uM by sulforhodamine B assay. The following applies: read-out: GI.
Experiment [9] can be described thus: Growth inhibition of human HCC2998 cells assessed as growth inhibition at 10 uM by sulforhodamine B assay. As to conditions: HCC 2998, read-out: GI.
Experiment [10] concerns HOP-92. Kind of experiment: Growth inhibition of human HOP92 cells assessed as growth inhibition at 10 uM by sulforhodamine B assay. The following applies: read-out: GI.
Experiment [11] is described as follows: Growth inhibition of human EKVX cells assessed as growth inhibition at 10 uM by sulforhodamine B assay. As to conditions: read-out: GI.
Experiment [12] concerns A549. Kind of experiment: Growth inhibition of human A549/ATCC cells assessed as growth inhibition at 10 uM by sulforhodamine B assay. The following applies: read-out: GI.
Experiment [13] relates to BT-549. In words: Growth inhibition of human BT549 cells assessed as cell growth at 10 uM by sulforhodamine B assay. As to conditions: read-out: Activity.
Experiment [14] deals with PC-3. Kind of experiment: Growth inhibition of human PC3 cells assessed as cell growth at 10 uM by sulforhodamine B assay. The following applies: read-out: Activity.
Experiment [15] concerns TK-10. Kind of experiment: Growth inhibition of human TK10 cells assessed as cell growth at 10 uM by sulforhodamine B assay. As to conditions: read-out: Activity.
Experiment [16] concerns OVCAR-5. In words: Growth inhibition of human OVCAR5 cells assessed as cell growth at 10 uM by sulforhodamine B assay. As to conditions: read-out: Activity.
Experiment [17] concerns MDA-MB-435. In words: Growth inhibition of human MDA-MB-435 cells assessed as cell growth at 10 uM by sulforhodamine B assay. As to conditions: read-out: Activity.
Experiment [18] concerns LOX IMVI. Kind of experiment: Growth inhibition of human LOXIMVI cells assessed as cell growth at 10 uM by sulforhodamine B assay. The following applies: read-out: Activity.
In experiment [19] the test system is KM12. In words: Growth inhibition of human KM12 cells assessed as cell growth at 10 uM by sulforhodamine B assay. As to conditions: read-out: Activity.
Experiment [20] has as its system HCT-116. Kind of experiment: Growth inhibition of human HCT116 cells assessed as cell growth at 10 uM by sulforhodamine B assay. The following applies: read-out: Activity.
Experiment [21] in a line: Growth inhibition of human EKVX cells assessed as cell growth at 10 uM by sulforhodamine B assay. As to conditions: read-out: Activity.
Experiment [22] deals with RPMI-8226. Kind of experiment: Growth inhibition of human RPMI8226 cells assessed as cell growth at 10 uM by sulforhodamine B assay. As to conditions: read-out: Activity.

In the case of `CC1(C)C[C@@H](O)[C@]2(C(=O)O)CC[C@]3(C)C(=CC[C@@H]4[C@@]5(C)CC[C@H](O)C(C)(C)[C@@H]5CC[C@]43C)[C@@H]2C1`, the inhibition of growth at 10 µM in experiment [1], in experiment [4], in experiment [5], in experiment [6], in experiment [7] and in experiment [8] was below 10% each time. Also, the inhibition of growth at 10 µM was below 10% in experiment [9], below 10% in experiment [10], below 10% in [11] and 12.4% in [12]. For the same compound, the growth at 10 µM in experiment [2] was 82%; in experiment [3], 88.4%; in experiment [13] it was 90.3%; in experiment [14], 76.5%; in experiment [15], 99.7%; in [16], 119%. In addition, the growth at 10 µM was determined as 116% in experiment [17]; 89% in experiment [18]; 90.1% in experiment [19]; 82.7% in [20]; 104% in experiment [21]; 89.3% in [22].

Turning to `CC1(C)C[C@@H](O)[C@]2(C(=O)O)CC[C@]3(C)C(=CC[C@@H]4[C@@]5(C)CCC(=O)C(C)(C)[C@@H]5CC[C@]43C)[C@@H]2C1`, the inhibition of growth at 10 µM in [1] was below 10%; in experiment [4] it was below 10%; in experiment [5] it was below 10%; in experiment [6], below 10%; in experiment [7], below 10%; in [8], 12.3%. Moreover, the inhibition of growth at 10 µM in experiment [9] is below 10%; in experiment [10], 24.6%; in experiment [11], below 10%; in experiment [12], 21%. The growth at 10 µM in [2] was 75.2%; in experiment [3], 87.5%; in [13], 89.9%; in experiment [14], 59.3%; in [15], 106%; in experiment [16], 108%. The growth at 10 µM in [17] came to 102%; in experiment [18] it was 93.2%; in experiment [19] it was 87.7%; in experiment [20], 78.8%; in experiment [21] it was 99.2%; in experiment [22], 70.2%.
